Measurements reported in patent US5912351A, “Anhydrous 1,4-Dihydropyridines and salts thereof” (Recordati, S.A. Chemical and Pharmaceutical Company, priority 1995, dated 1999).

Key:
[1] = tested on: mouse peritoneal macrophages; assay: Cholesteryl ester hydrolysis in macrophages; assay type: cell-based; settings: AcLDL 50 μg/ml + S-58035 1 μg/ml + 5 × 10^-6 M compound
Experimental: These experiments were performed by incubating cells preloaded with [^3 H]cholesterol in the presence of the specific ACAT inhibitor S-58035. The blockage of intracellular reesterification of cholesterol allowed the assessment of the ability of cells to hydrolyze the accumulated cholesterol esters.
For studies involving the quantitation of the hydrolysis of cholesteryl esters in cytoplasmic lipid droplets, cells, prepared according to the procedure in Example 6A, are loaded with cholesteryl esters by exposure for 24 hours to the medium containing 50 μg/ml acetyl LDL. [1,2-^3 H]Cholesterol is included in all loading media at a concentration of 0.5 μCi/ml. After 24 hours loading period, during which time the radiolabeled cholesterol is incorporated and esterified, the cell monolayers are washed and incubated an additional 24 hours in medium containing 0.1% bovine serum albumin to allow the intracellular pools of labelled cholesterol to equilibrate to the same specific activity. To quantitate cholesteryl ester hydrolysis, the loaded cells are incubated for up to 24 hours in Dulbecco's minimum essential medium containing, 0.1% bovine serum albumin, lercanidipines, and the compound S-58035, an inhibitor of acyl-coenzyme A-cholesterol acyltransferase. The inhibition of acyl-coenzyme A-cholesterol acyltransferase prevents the reesterification of any free cholesterol generated by cholesteryl ester hydrolysis and thus allows assessment of the activity of the hydrolase. The hydrolysis of the cholesteryl esters is quantified by determining the decrease of radiolabeled cholesteryl esters (E. H. Harrison et al., J. Lipid. Res. 31: […] with phosphate buffered saline and extracted with hexane:isopropanol (3:2 v/v). The media were extracted with chloroform:methanol (2:1 v/v). After solvent removal, free and esterified cholesterol were separated by TLC (isooctane:diethyl ether:acetic acid, 75:25:2 by volume). Cholesterol mass or radioactivity of the spots were determined by an enzymatic method (Boehringer Mannheim, Germany) (F. Bernini et al., Atherosclerosis 104: 19 (1993)) or by liquid scintillation counting (Lipoluma Lumac, Landgraf, The Netherlands) respectively.

renal hypertensive dogs = assay: Blood pressure in renal hypertensive dogs, oral administration; assay type: in vivo, dog; settings: for ED25: Canis lupus familiaris, linear regression analysis, read-out: ED25 (dose inducing 25% decrease in DBP at peak effect), 95% C.L.
Experimental: The antihypertensive effects of oral administration of lercanidipine and its enantiomers were tested in renal hypertensive dogs.
Male Beagle dogs weighing 12-13 kg, aging 1-3 years (Nossan Allevamenti, Italy) were used. Chronic sustained hypertension was induced by bilateral renal artery constriction, according to the Goldblatt method "two-kidney, two clip hypertension". Under barbiturate anaesthesia (35 mg/kg i.v.), during two different surgical interventions one month apart from each other, both renal arteries were clipped with original renal silver clips and narrowed by about 60-70%. After two months from the last intervention,an experimental renal hypertension was produced and the animals were suitable for the implantation of a catheter. Under sodium pentobarbital anaesthesia (35 mg/kg i.v.), in sterile conditions, the dogs were catheterized by inserting an indwelling cannula (PE 200 Clay Adams) into the ascending aorta through the right common carotid artery. The catheter was subcutaneously exteriorized at the back of the neck, filled with heparinized saline solution and flushed daily to prevent clotting. After a week recovery time from surgery, the animals were connected to a HP 1290A pressure transducer connected to an HP 8805B carrier amplifier of a Hewlett Packard HP 7700 multichannel polygraph, to monitor the arterial blood pressure. Heart rate was manually computed from the pressure trace.
All animals were alternatively treated with placebo, lercanidipine and its (R)- and (S)- enantiomers. The drugs were administered orally with a straight round aseptic tip catheter (Pores Serlat--France). The drugs were suspended in aqueous 0.5% Methocel A4C plus Antifoam M10 (10%). The amount administered was 1 ml/kg.
The suspending medicine was used as placebo. During experimental performance, the arterial blood pressure was continuously recorded 30 min. before (basal values) and up to 8 hours after drug administration.
The ED25 values (dose inducing 25% decrease in DBP at peak effect) were evaluated by linear regression analysis and summarized in the Table 4.

SMILES	% of cholesteryl ester [1] [%]	arterial blood pressure (renal hypertensive dogs)	ED25 (renal hypertensive dogs) [mg/kg]	decrease in DBP (renal hypertensive dogs; up to 30 mg/kg) [%]	efficacy at lowering blood pressure relative to the racemate (renal hypertensive dogs)
COC(=O)C1=C(C)NC(C)=C(C(=O)OC(C)(C)CN(C)CCC(c2ccccc2)c2ccccc2)C1c1cccc([N+](=O)[O-])c1 (racemic) [LE, methyl 1,1,N-trimethyl-N-(3,3-diphenylpropyl)-2-aminoethyl 1,4-dihydro-2,6-dimethyl-4-(3-nitrophenyl)-pyridine-3,5-dicarboxylate]	12 ± 1.2	dose-related decrease	0.9	–	–
COC(=O)C1=C(C)NC(C)=C(C(=O)OC(C)(C)CN(C)CCC(c2ccccc2)c2ccccc2)[C@@H]1c1cccc([N+](=O)[O-])c1 [(R)-LE, (R)-(-)METHYL 1,1-N-TRIMETHYL-N-(3,3-DIPHENYLPROPYL)-2-AMINOETHYL 1,4-DIHYDRO-2,6-DIMETHYL-4-(3-NITROPHENYL)PYRIDINE-3,5-DICARBOXYLATE]	16 ± 2.1	–	> 30	< 10	–
COC(=O)C1=C(C)NC(C)=C(C(=O)OC(C)(C)CN(C)CCC(c2ccccc2)c2ccccc2)[C@H]1c1cccc([N+](=O)[O-])c1 [(S)-LE, (S)-(+)-METHYL 1,1-N-TRIMETHYL-N-(3,3-DIPHENYLPROPYL)-2-AMINOETHYL 1,4-DIHYDRO-2,6-DIMETHYL-4-(3-NITROPHENYL)PYRIDINE-3,5-DICARBOXYLATE]	14 ± 0.4	dose-related decrease	0.4	–	two fold more efficacious
